The subject of assay [1] is bovine pulmonary endothelial cells (bPAEC). The experiment in a line: 3H-thymidine incorporation cell proliferation assay in bPAEC combined with c-Met siRNA. It counts as cell-based. The conditions noted are these: serial dilutions of 5-((E)-2-thiophen-2-yl-vinyl)-1H-pyrazole or HGF; with c-Met siRNA knockdown; FIG. 1B-C. As to the method:
Compounds promote proliferation of pulmonary endothelial cells specifically through c-Met. Proliferation of pulmonary endothelial cells is one of the important pulmotrophic activities of HGF. […] First, a c-Met siRNA was used with a lipo-transfecting reagent to knock down the c-Met mRNA level in bPAEC cells, and real time RT-PCR conducted to measure the effect. The c-Met siRNA can knock down ˜90% of c-Met mRNA at a c-Met siRNA concentration as low as 50 nM. Next, the siRNA knockdown condition established from the first step was used to decrease >=90% of c-Met mRNA in bPAEC by using 100 nM of the c-Met siRNA pool, and subsequently ^3H-thymidine incorporation assay was performed in the bPAEC cells.
Shown in FIG. 1B-C, ˜5,000/well bPAEC were plated in 96 well plates. The steps as described above were continued until 24 h after adding the mixture of siRNAs and lipofectamine. Then the medium was changed with the fresh mixture of siRNAs and lipofectamine containing serial dilutions of the compound 5-((E)-2-thiophen-2-yl-vinyl)-1H-pyrazole or HGF, incubated another 24 h, 100 ul of ^3H-thymidine(1uCi/ml) was added and incubation continued overnight. Then, 100 ul/well Trypsin/EDTA was added, and ^3H-thymidine incorporation analysis was conducted using an auto-harvester and Topcount NXT v2.12 instrument.

The test system is the same in assay [2]. Kind of assay: CytoSelect 24-well cell migration assay of bPAEC. Format: cell-based. The conditions noted are these: 24 h; multiple concentrations; FIG. 2. As to the method:
Another important pulmotrophic activity of HGF is to stimulate migration of pulmonary endothelial cells. Again, bPAEC cells were used to test if test compound, like HGF, can stimulate migration of the cells. The CytoSelect 24-well cell migration assay (Cell Biolabs, Inc.) was used to measure the migration of bPAEC cells according to the kit manual.
CytoSelect 24-well cell migration assay kit (Cell Biolabs, Inc.) was used. Briefly, ˜300,000 cells/chamber were seeded in serum-free medium and put into a larger well containing medium with no-serum (C), serum, HGF, compound at multiple concentrations (see above), respectively, and incubated for 24 h. The medium was then aspirated from the chamber and then carefully and completely, the cells on the inner surface of the membrane were removed with cotton and the membrane washed twice. The migrated cells were stained and quantified by measuring OD at 560 nm. The mean values from bouble wells for each compound are shown.

With “HGF: hepatocyte growth factor (HGF; also known as scatter factor), acts through its receptor c-Met”, in assay [1], the “proliferation of bPAEC cells (3H-thymidine incorporation)” value was “promote proliferation of bPAEC cells specifically through HGF receptor c-Met”. Also, in assay [2], the “migration of bPAEC cells (OD at 560 nM)” value is given as “stimulates bPAEC cells migration”.
